In article PMC4778445, “Measurement of free glucocorticoids: quantifying corticosteroid-binding globulin binding affinity and its variation within and among mammalian species” (Conservation Physiology, 2015):

Assays:
Assay in all cases: radioligand saturation binding, dextran-coated charcoal separation
[1] = target: T1, corticosteroid-binding globulin (CBG), alpaca (Vicugna pacos, UniProt A0A6I9IEG0); settings: labelled compound ([1,2,6,7-3H]cortisol); 37 °C, ≥4 h, PBS with gelatin; separation at 0 °C; serum 1/50; non-specific binding subtracted; error SEM
T1 construct: gene SERPINA6; native protein in charcoal-stripped serum (Toronto Zoo), not purified
T1 sequence (A0A6I9IEG0 18-405): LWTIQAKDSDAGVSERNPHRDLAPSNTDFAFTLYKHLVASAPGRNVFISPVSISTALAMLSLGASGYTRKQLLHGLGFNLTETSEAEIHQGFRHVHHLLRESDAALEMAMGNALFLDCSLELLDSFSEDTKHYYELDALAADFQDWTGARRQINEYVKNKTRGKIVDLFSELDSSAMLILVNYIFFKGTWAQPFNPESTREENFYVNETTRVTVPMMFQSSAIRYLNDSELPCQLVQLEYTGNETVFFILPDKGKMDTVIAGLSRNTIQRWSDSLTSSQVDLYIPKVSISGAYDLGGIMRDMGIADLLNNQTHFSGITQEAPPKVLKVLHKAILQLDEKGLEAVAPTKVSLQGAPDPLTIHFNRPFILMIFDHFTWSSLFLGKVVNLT
Excerpt: radioligand saturation binding, dextran-coated charcoal separation on corticosteroid-binding globulin (CBG), alpaca

[2] = target: T2, corticosteroid-binding globulin (CBG), Arctic wolf (Canis lupus, UniProt A0A8I3MUM2); settings: labelled compound ([1,2,6,7-3H]cortisol); 37 °C, ≥4 h, PBS with gelatin; separation at 0 °C; serum 1/50; non-specific binding subtracted; error SEM
T2 construct: gene SERPINA6; native protein in charcoal-stripped serum (Toronto Zoo), not purified
T2 sequence (A0A8I3MUM2 23-404): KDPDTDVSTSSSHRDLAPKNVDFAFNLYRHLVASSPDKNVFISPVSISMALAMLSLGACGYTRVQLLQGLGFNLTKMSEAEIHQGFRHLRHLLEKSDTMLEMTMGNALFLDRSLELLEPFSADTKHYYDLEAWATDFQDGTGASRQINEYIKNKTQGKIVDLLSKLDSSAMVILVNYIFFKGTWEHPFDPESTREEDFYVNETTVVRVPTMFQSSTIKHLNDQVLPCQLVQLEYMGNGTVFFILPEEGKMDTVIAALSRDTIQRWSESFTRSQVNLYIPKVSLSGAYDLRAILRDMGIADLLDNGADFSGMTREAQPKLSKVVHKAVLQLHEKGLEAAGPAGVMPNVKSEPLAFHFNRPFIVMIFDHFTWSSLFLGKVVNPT
Excerpt: radioligand saturation binding, dextran-coated charcoal separation on corticosteroid-binding globulin (CBG), Arctic wolf

[3] = target: T3, corticosteroid-binding globulin (CBG), Arctic ground squirrel (Urocitellus parryii, UniProt A0A8D2GQE2); settings: labelled compound ([1,2,6,7-3H]cortisol); 37 °C, ≥4 h, PBS with gelatin; separation at 0 °C; plasma 1/50; mean of four runs; error SEM
T3 construct: gene SERPINA6; native protein in charcoal-stripped plasma, not purified
T3 sequence (A0A8D2GQE2 23-403): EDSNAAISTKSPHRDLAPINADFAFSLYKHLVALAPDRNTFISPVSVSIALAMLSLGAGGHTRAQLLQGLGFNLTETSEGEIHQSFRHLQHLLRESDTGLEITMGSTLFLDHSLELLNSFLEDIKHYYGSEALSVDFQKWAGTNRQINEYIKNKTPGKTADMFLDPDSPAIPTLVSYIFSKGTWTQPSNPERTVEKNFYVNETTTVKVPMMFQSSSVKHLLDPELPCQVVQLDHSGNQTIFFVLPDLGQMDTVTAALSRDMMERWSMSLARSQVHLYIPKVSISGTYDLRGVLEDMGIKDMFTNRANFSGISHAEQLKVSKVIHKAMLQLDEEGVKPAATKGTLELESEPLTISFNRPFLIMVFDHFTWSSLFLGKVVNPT
Excerpt: radioligand saturation binding, dextran-coated charcoal separation on corticosteroid-binding globulin (CBG), Arctic ground squirrel

[4] = target: T4, corticosteroid-binding globulin (CBG), cheetah (Acinonyx jubatus, UniProt A0A6I9ZWD2); settings: labelled compound ([1,2,6,7-3H]cortisol); 37 °C, ≥4 h, PBS with gelatin; separation at 0 °C; serum 1/50; error SEM
T4 construct: gene LOC106977455; native protein in charcoal-stripped serum (Toronto Zoo), not purified
T4 sequence (A0A6I9ZWD2 23-404): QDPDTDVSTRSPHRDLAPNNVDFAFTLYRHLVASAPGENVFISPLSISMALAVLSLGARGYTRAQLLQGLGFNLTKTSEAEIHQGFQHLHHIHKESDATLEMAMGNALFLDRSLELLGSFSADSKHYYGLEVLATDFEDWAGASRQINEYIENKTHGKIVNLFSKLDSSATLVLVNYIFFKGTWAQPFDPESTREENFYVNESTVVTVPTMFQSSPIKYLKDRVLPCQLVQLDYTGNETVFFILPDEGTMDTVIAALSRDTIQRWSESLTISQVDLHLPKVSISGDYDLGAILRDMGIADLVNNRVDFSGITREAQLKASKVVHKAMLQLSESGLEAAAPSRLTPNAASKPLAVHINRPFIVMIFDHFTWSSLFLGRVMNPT
Excerpt: radioligand saturation binding, dextran-coated charcoal separation on corticosteroid-binding globulin (CBG), cheetah

[5] = target: T5, corticosteroid-binding globulin (CBG), Soay sheep (Ovis aries, UniProt P49920); settings: labelled compound ([1,2,6,7-3H]cortisol); 37 °C, ≥4 h, PBS with gelatin; separation at 0 °C; plasma 1/50; error SEM
T5 construct: gene SERPINA6; native protein in charcoal-stripped plasma, not purified
T5 sequence (P49920 23-430): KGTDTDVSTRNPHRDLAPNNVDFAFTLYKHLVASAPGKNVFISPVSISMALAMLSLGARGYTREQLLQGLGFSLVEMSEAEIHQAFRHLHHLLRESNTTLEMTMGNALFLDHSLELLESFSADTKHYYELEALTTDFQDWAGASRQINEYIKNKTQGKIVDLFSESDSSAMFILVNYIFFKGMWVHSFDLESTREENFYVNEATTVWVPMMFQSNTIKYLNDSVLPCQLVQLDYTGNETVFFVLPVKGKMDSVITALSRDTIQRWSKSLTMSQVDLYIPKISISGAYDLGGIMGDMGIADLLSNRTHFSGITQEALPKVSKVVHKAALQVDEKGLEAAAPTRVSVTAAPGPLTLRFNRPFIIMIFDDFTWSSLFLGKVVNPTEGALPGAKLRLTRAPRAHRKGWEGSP
Excerpt: radioligand saturation binding, dextran-coated charcoal separation on corticosteroid-binding globulin (CBG), Soay sheep

[6] = target: T6, corticosteroid-binding globulin (CBG), Siberian tiger (Panthera tigris, UniProt A0A8C9K299); settings: labelled compound ([1,2,6,7-3H]cortisol); 37 °C, ≥4 h, PBS with gelatin; separation at 0 °C; serum 1/50; non-specific binding subtracted; error SEM
T6 construct: native protein in charcoal-stripped serum (Toronto Zoo), not purified
T6 sequence (A0A8C9K299 23-403): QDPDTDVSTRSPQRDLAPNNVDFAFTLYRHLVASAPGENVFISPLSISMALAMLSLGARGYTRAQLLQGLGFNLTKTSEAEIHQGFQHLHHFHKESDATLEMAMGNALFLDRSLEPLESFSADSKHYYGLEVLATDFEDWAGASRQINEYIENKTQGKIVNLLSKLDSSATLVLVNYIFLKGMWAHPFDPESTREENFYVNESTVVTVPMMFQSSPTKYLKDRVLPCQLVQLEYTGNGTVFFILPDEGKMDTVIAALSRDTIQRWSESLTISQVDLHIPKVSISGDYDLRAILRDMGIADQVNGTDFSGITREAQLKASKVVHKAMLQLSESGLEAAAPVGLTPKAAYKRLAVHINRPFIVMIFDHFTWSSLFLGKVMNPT
Excerpt: radioligand saturation binding, dextran-coated charcoal separation on corticosteroid-binding globulin (CBG), Siberian tiger

[7] = target: T7, corticosteroid-binding globulin (CBG), Bactrian camel (Camelus bactrianus, UniProt A0A9W3H1V5); settings: labelled compound ([1,2,6,7-3H]cortisol); 37 °C, ≥4 h, PBS with gelatin; separation at 0 °C; serum 1/50; non-specific binding subtracted; error SEM
T7 construct: gene LOC105079894; native protein in charcoal-stripped serum (Toronto Zoo), not purified
T7 sequence (A0A9W3H1V5 24-405 limits assumed): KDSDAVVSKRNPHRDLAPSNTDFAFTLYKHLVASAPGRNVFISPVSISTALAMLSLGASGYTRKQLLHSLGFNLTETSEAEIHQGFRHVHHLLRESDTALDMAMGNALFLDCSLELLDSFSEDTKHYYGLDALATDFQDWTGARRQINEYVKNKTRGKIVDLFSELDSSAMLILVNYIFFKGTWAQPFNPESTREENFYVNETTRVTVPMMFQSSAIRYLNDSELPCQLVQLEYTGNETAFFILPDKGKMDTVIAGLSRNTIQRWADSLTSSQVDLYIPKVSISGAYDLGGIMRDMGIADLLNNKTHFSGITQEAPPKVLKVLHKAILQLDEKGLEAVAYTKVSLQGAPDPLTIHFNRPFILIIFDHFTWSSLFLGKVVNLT
Excerpt: radioligand saturation binding, dextran-coated charcoal separation on corticosteroid-binding globulin (CBG), Bactrian camel

[8] = target: T8, corticosteroid-binding globulin (CBG), deer mouse (Peromyscus maniculatus, UniProt A0A6J0EC89); settings: labelled compound ([1,2,6,7-3H]corticosterone); 37 °C, ≥4 h, PBS with gelatin; separation at 0 °C; plasma 1/200; error SEM
T8 construct: gene Serpina6; native protein in charcoal-stripped plasma, not purified
T8 sequence (A0A6J0EC89 23-402): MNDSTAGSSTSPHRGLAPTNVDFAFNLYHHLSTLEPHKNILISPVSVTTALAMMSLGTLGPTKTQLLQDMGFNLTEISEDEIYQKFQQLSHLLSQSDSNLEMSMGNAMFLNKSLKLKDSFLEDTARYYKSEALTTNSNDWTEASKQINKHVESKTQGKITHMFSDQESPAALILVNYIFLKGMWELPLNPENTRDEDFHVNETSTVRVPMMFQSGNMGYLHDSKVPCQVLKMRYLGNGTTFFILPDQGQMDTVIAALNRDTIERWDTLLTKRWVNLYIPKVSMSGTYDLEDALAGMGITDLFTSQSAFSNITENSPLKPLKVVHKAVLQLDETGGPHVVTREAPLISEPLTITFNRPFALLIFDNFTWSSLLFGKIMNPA
Excerpt: radioligand saturation binding, dextran-coated charcoal separation on corticosteroid-binding globulin (CBG), deer mouse

[9] = target: T9, corticosteroid-binding globulin (CBG), meadow vole (Microtus pennsylvanicus, UniProt Z9TXB6IQC5); settings: labelled compound ([1,2,6,7-3H]corticosterone); 37 °C, ≥4 h, PBS with gelatin; separation at 0 °C; plasma 1/50; mean of two runs; error SEM
T9 construct: native protein in charcoal-stripped plasma, not purified
T9 sequence (Z9TXB6IQC5 21-398): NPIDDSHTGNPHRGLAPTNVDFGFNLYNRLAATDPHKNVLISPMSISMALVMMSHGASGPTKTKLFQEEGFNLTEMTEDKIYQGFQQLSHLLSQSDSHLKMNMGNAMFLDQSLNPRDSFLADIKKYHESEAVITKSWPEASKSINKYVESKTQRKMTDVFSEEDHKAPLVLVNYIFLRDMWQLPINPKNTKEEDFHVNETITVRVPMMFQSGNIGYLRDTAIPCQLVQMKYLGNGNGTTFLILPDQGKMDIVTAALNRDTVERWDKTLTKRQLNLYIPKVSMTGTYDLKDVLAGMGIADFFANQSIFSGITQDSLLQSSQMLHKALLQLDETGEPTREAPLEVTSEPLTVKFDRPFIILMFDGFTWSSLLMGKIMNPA
Excerpt: radioligand saturation binding, dextran-coated charcoal separation on corticosteroid-binding globulin (CBG), meadow vole

## C[C@]12CCC(=O)C=C1CC[C@@H]1[C@@H]2[C@@H](O)C[C@@]2(C)[C@H]1CC[C@]2(O)C(=O)CO [F, cortisol]
[1]
  Kd: 0.6 ± 0.15 nM
[2]
  Kd: 0.8 ± 0.11 nM
[3]
  Kd: 4 ± 0.4 nM
[4]
  Kd: 8 ± 2.4 nM
[5]
  Kd: 1.7 ± 0.55 nM
[6]
  Kd: 0.7 ± 0.19 nM
[7]
  Kd: 1 ± 0.16 nM

## C[C@]12C[C@H](O)[C@H]3[C@@H](CCC4=CC(=O)CC[C@@]43C)[C@@H]1CC[C@@H]2C(=O)CO [B, corticosterone]
[8]
  Kd: 4.9 ± 0.61 nM
[9]
  Kd: 5.4 ± 1.2 nM
